The values that follow come from patent US20150284381A1, “AMINO-PYRIDINE-CONTAINING SPLEEN TYROSINE KINASE (SYK) INHIBITORS” (MERCK SHARP & DOHME CORP., priority 2012, published 2015).

Data set [1] deals with T1, recombinant human GST-Syk (Homo sapiens, UniProt P43405).
T1 construct: purchased Carna Biosciences 08-176
Kind of data set: Homogeneous Time-Resolved Fluorescence (HTRF) assay for the recombinant human Syk enzyme. Conditions: recombinant human GST-Syk 5 pM, ATP 25 μM, 45 min at rt, read-out: rhSyk. It is filed as biochemical. How it is done: Homogeneous Time-Resolved Fluorescence (HTRF) Assay for the Recombinant Human Syk Enzyme
A recombinant GST-hSyk fusion protein was used to measure potency of compounds to inhibit human Syk activity. The recombinant human GST-Syk (Carna Biosciences #08-176) (5 pM nominal concentration) was incubated with various concentrations of the inhibitor diluted in DMSO (0.1% final concentration) for 10 minutes at rt in 15 mM Tris-HCl (pH 7.5), 0.01% tween 20, 2 mM DTT in 384 well plate format. To initiate the reaction the biotinylated substrate peptide (250 nM final concentration) that contains the phosphorylation site for Syk was added with magnesium (5 mM final concentration) and ATP (25 μM final concentration). Final volume of the reaction was 10 μL. Phosphorylation of the peptide was allowed to proceed for 45′ at rt. To quench the reaction and detect the phosphorylated product, 2 nM of a Europium-anti-phosphotyrosine antibody (Perkin Elmer #AD0161) and 70 nM SA-APC (Perkin-Elmer #CR130-100) were added together in 15 mM Tris pH 7.5, 40 mM EDTA, 0.01% tween 20. Final volume of the quenching solution was 10 μL. The resulting HTRF signal was measured after 30 minutes on a EnVision (Perkin-Elmer) reader using a time-resolved fluorescence protocol. IC50 was determined following 10-dose titration (10 μM to 0.508 nM) and four parameter logistic curve fitting using an assay data analyzer.

In a further data set the test system is PGD2. The conditions noted are these: dosed intranasally, phase I/II study, allergic rhinitis; cited from earlier work.
For data set [2] the following is noted: phase II clinical trial, allergic rhinitis; cited from earlier work.

For `Cc1cc(Nc2cc(C(C)F)ccn2)nc(-c2cnc(C3(O)CCCc4cc(C(=O)O)ccc43)s2)c1` (single isomer, unassigned) [Example 8A, 5-(5-(6-((4-(1-Fluoroethyl)pyridin-2-yl)amino)-4-methylpyridin-2-yl)thiazol-2-yl)-5-hydroxy-5,6,7,8-tetrahydronaphthalene-2-carboxylic acid], the IC50 in data set [1] came out at 2 nM.

Take `Cc1cc(Nc2cc(C(C)F)ccn2)nc(-c2cnc([C@@]3(O)CCc4cc(C(=O)O)ccc43)s2)c1` (single isomer, unassigned) [Example 2K, (1R)-1-[5-(6-{[4-((R or S)-1-fluoroethyl)pyridin-2-yl]amino}-4-methylpyridin-2-yl)-1,3-thiazol-2-yl]-1-hydroxy-2,3-dihydro-1H-indene-5-carboxylic acid]: the IC50 in data set [1] is 0.05 nM.

`CCC(CC)c1ccnc(Nc2cc(C)cc(-c3cnc([C@@]4(O)CCCc5cc(C(=O)O)ccc54)s3)n2)c1` [Example 3C, (5R)-5-[5-(6-{[4-(1-ethylpropyl)pyridin-2-yl]amino}-4-methylpyridin-2-yl)-1,3-thiazol-2-yl]-5-hydroxy-5,6,7,8-tetrahydronaphthalene-2-carboxylic acid]: the IC50 in data set [1] was 0.5 nM.

For `CCOc1ccnc(Nc2cc(C)cc(-c3cnc([C@@]4(O)CCc5cc(C(=O)O)ccc54)s3)n2)c1` [Example 2D, (1R)-1-(5-{6-[(4-ethoxypyridin-2-yl)amino]-4-methylpyridin-2-yl}-1,3-thiazol-2-yl)-1-hydroxy-2,3-dihydro-1H-indene-5-carboxylic acid], the IC50 in data set [1] was found to be 0.74 nM.

As to `Cc1cc(Nc2cc(-c3cn[nH]c3)ccn2)nc(-c2cnc([C@@]3(O)CCc4cc(C(=O)O)ccc43)s2)c1` [Example 5A, (1R)-1-hydroxy-1-[5-(4-methyl-6-{[4-(1H-pyrazol-4-yl)pyridin-2-yl]amino}pyridin-2-yl)-1,3-thiazol-2-yl]-2,3-dihydro-1H-indene-5-carboxylic acid], the IC50 in data set [1] amounted to 0.04 nM.

As for `COC(=O)c1ccc2c(c1)CCCC2(O)c1ncc(-c2cc(C)cc(Nc3cc(-c4cn[nH]c4)ccn3)n2)s1` (centres unmarked) [Example 4A, Methyl 5-(5-(6-((4-(1H-pyrazol-4-yl)pyridin-2-yl)amino)-4-methylpyridin-2-yl)thiazol-2-yl)-5-hydroxy-5,6,7,8-tetrahydronaphthalene-2-carboxylate], the IC50 in data set [1] came out at 2.38 nM.

Take `CCc1ccnc(Nc2cc(C)cc(-c3cnc([C@@]4(O)CCc5cc(C(=O)O)ccc54)s3)n2)c1` [Example 2B, (1R)-1-(5-{6-[(4-ethylpyridin-2-yl)amino]-4-methylpyridin-2-yl}-1,3-thiazol-2-yl)-1-hydroxy-2,3-dihydro-1H-indene-5-carboxylic acid]: in data set [1], the IC50 is 0.17 nM.

Take `Cc1cc(Nc2cc(C(F)(F)F)ccn2)nc(-c2cnc(C3(O)CCc4cc(C(=O)O)c(F)cc43)s2)c1` (single isomer, unassigned) [Example 1D, (R or S)-6-fluoro-1-hydroxy-1-[5-(4-methyl-6-{[4-(trifluoromethyl)pyridin-2-yl]amino}pyridin-2-yl)-1,3-thiazol-2-yl]-2,3-dihydro-1H-indene-5-carboxylic acid]: the IC50 in data set [1] was found to be 0.67 nM.

With `Cc1cc(Nc2cc(C(C)F)ccn2)nc(-c2cnc(C3(O)CCCc4cc(C(=O)O)ccc43)s2)c1` (single isomer, unassigned) [Example 8D, 5-(5-(6-((4-(1-Fluoroethyl)pyridin-2-yl)amino)-4-methylpyridin-2-yl)thiazol-2-yl)-5-hydroxy-5,6,7,8-tetrahydronaphthalene-2-carboxylic acid], in data set [1], the IC50 stood at 0.1 nM.

In the case of `Cc1cc(Nc2cc(C3CC3)ccn2)nc(-c2cnc(C3(O)CCCc4cc(C(=O)O)c(F)cc43)s2)c1` (single isomer, unassigned) [Example 1G, (R or S)-5-(5-{6-[(4-cyclopropylpyridin-2-yl)amino]-4-methylpyridin-2-yl}-1,3-thiazol-2-yl)-3-fluoro-5-hydroxy-5,6,7,8-tetrahydronaphthalene-2-carboxylic acid], the IC50 in data set [1] worked out at 4.3 nM.

Consider `Cc1cc(Nc2cc(C3CC3)ccn2)nc(-c2cnc(C3(O)CCCc4cc(C(=O)O)c(F)cc43)s2)c1` (single isomer, unassigned) [Example 1H, (R or S)-5-(5-{6-[(4-cyclopropylpyridin-2-yl)amino]-4-methylpyridin-2-yl}-1,3-thiazol-2-yl)-3-fluoro-5-hydroxy-5,6,7,8-tetrahydronaphthalene-2-carboxylic acid], for which, in data set [1], the IC50 worked out at 0.002 nM.

As for `Cc1cc(Nc2cc(C(F)(F)F)ccn2)nc(-c2cnc(C3(O)CCCc4cc(C(=O)O)c(Br)cc43)s2)c1` (single isomer, unassigned) [Example 1B, 3-Bromo-5-hydroxy-5-[5-(4-methyl-6-{[4-(trifluoromethyl)pyridin-2-yl]amino}pyridin-2-yl)-1,3-thiazol-2-yl]-5,6,7,8-tetrahydronaphthalene-2-carboxylic acid], the IC50 in data set [1] worked out at 0.51 nM.

Take `Oc1cccc(Nc2ncc(F)c(Nc3cccc(O)c3)n2)c1` [Example R112]: in the data set with PGD2, the PGD2 result is reported as “statistically significant decrease” and the clinical safety result is recorded as “safe across a range of indicators”. Further, the efficacy versus placebo entry in data set [2] is reported as “lack of efficacy versus placebo”.

`Cc1cc(Nc2cc(C(F)(F)F)ccn2)nc(-c2cnc(C3(O)CCCc4cc(C(=O)O)c(Br)cc43)s2)c1` (single isomer, unassigned) [Example 1A, 3-Bromo-5-hydroxy-5-[5-(4-methyl-6-{[4-(trifluoromethyl)pyridin-2-yl]amino}pyridin-2-yl)-1,3-thiazol-2-yl]-5,6,7,8-tetrahydronaphthalene-2-carboxylic acid]: the IC50 in data set [1] turned out to be 1.51 nM.

As for `Cc1cc(Nc2cc(C(C)F)ccn2)nc(-c2cnc([C@@]3(O)CCc4cc(C(=O)O)ccc43)s2)c1` (single isomer, unassigned) [Example 2J, (1R)-1-[5-(6-{[4-((R or S)-1-fluoroethyl)pyridin-2-yl]amino}-4-methylpyridin-2-yl)-1,3-thiazol-2-yl]-1-hydroxy-2,3-dihydro-1H-indene-5-carboxylic acid], the IC50 in data set [1] came out at 0.04 nM.

As for `Cc1cc(Nc2cc(C3CC3)ccn2)nc(-c2cnc([C@@]3(O)CCc4cc(C(=O)O)ccc43)s2)c1` [Example 2C, (1R)-1-(5-{6-[(4-cyclopropylpyridin-2-yl)amino]-4-methylpyridin-2-yl}-1,3-thiazol-2-yl)-1-hydroxy-2,3-dihydro-1H-indene-5-carboxylic acid], the IC50 in data set [1] was found to be 0.55 nM.

`COc1ccnc(Nc2cc(C)cc(-c3cnc([C@@]4(O)CCc5cc(C(=O)O)ccc54)s3)n2)c1` [Example 2G, (1R)-1-hydroxy-1-(5-{6-[(4-methoxypyridin-2-yl)amino]-4-methylpyridin-2-yl}-1,3-thiazol-2-yl)-2,3-dihydro-1H-indene-5-carboxylic acid]: the IC50 in data set [1] stood at 0.16 nM.

On to `Cc1cc(Nc2cc(-c3cn[nH]c3)ccn2)nc(-c2cnc(C3(O)CCCc4cc(C(=O)O)ccc43)s2)c1` (single isomer, unassigned) [Example 4B-2, 5-Hydroxy-5-[5-(4-methyl-6-{[4-(1H-pyrazol-4-yl)pyridin-2-yl]amino}pyridin-2-yl)-1,3-thiazol-2-yl]-5,6,7,8-tetrahydronaphthalene-2-carboxylic acid], for which the IC50 in data set [1] came to 0.8 nM.
